Entries after “also recorded” stand apart in the source; their conditions may differ. Marks after values point to notes of the source that are not given here.
Experiments:
[1] = target: T1, N-cadherin/Fc chimeric protein (Homo sapiens, UniProt P19022); experiment: Cadherin/Fc binding assay: phage ELISA on N-cadherin/Fc; parameters: key to ELISA Phage Binding to N-Cadherin/Fc Chimeric Protein 1.2 mM calcium / ELISA Phage Binding to N-Cadherin/Fc Chimeric Protein 2 mM EDTA / ELISA Phage Binding to Cadherin/Fc Chimeric Proteins N−: +: Phage bound to the chimeric protein; −: No phage bound to the chimeric protein
T1 construct: extracellular domain of human N-cadherin (Asp160-Ala724); purchased R&D Systems, Minneapolis, Minn
T1 sequence (P19022 160-724): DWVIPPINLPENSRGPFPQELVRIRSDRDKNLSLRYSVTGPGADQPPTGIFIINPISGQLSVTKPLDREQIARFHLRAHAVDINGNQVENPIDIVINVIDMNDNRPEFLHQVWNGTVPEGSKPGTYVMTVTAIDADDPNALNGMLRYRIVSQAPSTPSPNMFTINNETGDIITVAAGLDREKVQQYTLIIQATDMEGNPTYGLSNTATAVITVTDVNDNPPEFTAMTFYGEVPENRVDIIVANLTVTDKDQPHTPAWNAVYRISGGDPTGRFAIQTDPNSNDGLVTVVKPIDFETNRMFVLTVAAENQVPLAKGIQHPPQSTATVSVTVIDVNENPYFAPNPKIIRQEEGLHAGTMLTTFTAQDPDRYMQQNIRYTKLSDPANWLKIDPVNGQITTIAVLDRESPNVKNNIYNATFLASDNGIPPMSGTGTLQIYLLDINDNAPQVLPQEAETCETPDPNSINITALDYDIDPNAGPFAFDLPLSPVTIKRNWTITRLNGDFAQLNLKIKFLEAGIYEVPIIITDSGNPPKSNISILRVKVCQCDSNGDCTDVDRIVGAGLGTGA
Excerpt: (§1) The peptide libraries, Ph.D.-C7C™ and Ph.D.-12™ (New England BioLabs) were used in this study. These libraries are composed of 2×10^9 randomized 7 amino acid sequences flanked by cysteine residues and linear 12 amino acid sequences, respectively. The amino acid sequences are incorporated into the minor coat protein, pIII, of M13 phage. The N-cadherin/Fc chimeric protein (R&D Systems, Minneapolis, Minn.) consists of the extracellular domain of human N-cadherin (Asp160-Ala724) and the Fc region of human IgG1. The E-cadherin/Fc chimeric protein (R&D Systems, Minneapolis, Minn.) consists of the extracellular domain of human E-cadherin (Asp155-Ile707) and the Fc region of human IgG1.
The binding of each clone to the cadherin/Fc chimeric proteins was confirmed by ELISA. Wells of ProBind microtiter plates (Falcon) were coated with either N-cadherin/Fc or E-cadherin/Fc chimeric protein (100 ng/well) or human IgG1 (which contains the Fc fragment) (100 ng/well). […] Non-coated wells were also used to exclude any phage that bound to the plastic surface. […] M13 phage without any insert were used to control the non-specific binding of the phage itself to the target. […] […] Horseradish peroxidase substrate, TMB (Sigma), was added to each well (100 μl/well and after color development the reaction was stopped by addition of 100 μl 0.5 M sulphuric acid to each well. The intensity of the color was measured at 450 nm.
(§2) The phage clones shown to bind to the N-cadherin/Fc chimeric protein by ELISA were also evaluated for their ability to bind to E-cadherin/Fc and VE-cadherin/Fc chimeric proteins. The phage clones shown to bind to the E-cadherin/Fc chimeric protein by ELISA were also evaluated for their ability to bind to N-cadherin/Fc and VE-cadherin/Fc chimeric proteins. The same ELISA protocol described in the previous section was used to perform this evaluation with the exception that the wells were coated with either 100 ng N-cadherin/Fc, E-cadherin/Fc or VE-cadherin/Fc chimeric protein (R&D Systems, Minneapolis, Minn.).

[2] = target: T2, VE-cadherin/Fc chimeric protein (Homo sapiens, UniProt P33151); experiment: Cadherin specificity: phage ELISA on VE-cadherin/Fc; assay type: binding; parameters: key: +: Phage bound to the chimeric protein; −: No phage bound to the chimeric protein
T2 construct: purchased R&D Systems, Minneapolis, Minn
Protocol: (§3) The binding of each clone to the cadherin/Fc chimeric proteins was confirmed by ELISA. Wells of ProBind microtiter plates (Falcon) were coated with either N-cadherin/Fc or E-cadherin/Fc chimeric protein (100 ng/well) or human IgG1 (which contains the Fc fragment) (100 ng/well). After blocking the nonspecific sites with TBS containing 3% BSA and 1.2 mM CaCl2 for 1 h at 37° C., phage clones (10^9 pfu) diluted in TBST containing 3% BSA and 1.2 mM CaCl2 (100 μl/well). Non-coated wells were also used to exclude any phage that bound to the plastic surface. After 1 h incubation at room temperature, wells were washed 3 times with TBST containing 3% BSA and 1.2 mM CaCl2. M13 phage without any insert were used to control the non-specific binding of the phage itself to the target. Monoclonal anti-M13 antibody conjugated to horseradish peroxidase (Amersham Biosciences, Piscataway, N.J.) was diluted in TBST containing 3% BSA and 1.2 mM CaCl2 (1:2,000) and added to each well (100 μl/well). After 1 h incubation at room temperature, wells were washed three times with TBST containing 3% BSA and 1.2 mM CaCl2 and once with TBS containing 1.2 mM CaCl2. Horseradish peroxidase substrate, TMB (Sigma), was added to each well (100 μl/well and after color development the reaction was stopped by addition of 100 μl 0.5 M sulphuric acid to each well. The intensity of the color was measured at 450 nm.
as §2

[3] = target: T3, E-cadherin/Fc chimeric protein (Homo sapiens, UniProt P12830); experiment: Cadherin/Fc binding assay: phage ELISA on E-cadherin/Fc; parameters: key: +: Phage bound to the chimeric protein; −: No phage bound to the chimeric protein
T3 construct: extracellular domain of human E-cadherin (Asp155-Ile707); purchased R&D Systems, Minneapolis, Minn
T3 sequence (P12830 155-707): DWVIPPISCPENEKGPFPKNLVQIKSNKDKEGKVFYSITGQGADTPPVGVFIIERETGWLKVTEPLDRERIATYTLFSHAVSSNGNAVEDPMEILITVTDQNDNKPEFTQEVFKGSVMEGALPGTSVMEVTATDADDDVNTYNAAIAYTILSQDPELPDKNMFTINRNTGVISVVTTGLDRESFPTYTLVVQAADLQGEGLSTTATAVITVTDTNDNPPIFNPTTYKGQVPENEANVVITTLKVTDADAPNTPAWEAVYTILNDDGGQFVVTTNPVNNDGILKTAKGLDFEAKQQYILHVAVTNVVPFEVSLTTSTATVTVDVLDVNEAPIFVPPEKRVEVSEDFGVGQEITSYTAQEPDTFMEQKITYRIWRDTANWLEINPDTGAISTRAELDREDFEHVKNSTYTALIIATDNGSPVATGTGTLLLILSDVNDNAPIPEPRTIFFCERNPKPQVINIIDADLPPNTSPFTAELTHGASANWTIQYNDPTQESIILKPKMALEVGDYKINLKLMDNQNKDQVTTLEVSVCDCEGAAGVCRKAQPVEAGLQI
Excerpt: as §1, §3, §2

[4] = Table 4, Ph.D.-12 library clones
[5] = Table 7, Ph.D.-12 clones selected on E-cadherin/Fc
[6] = Table 6, Ph.D.-C7C clones selected on E-cadherin/Fc
[7] = Table 2, Ph.D.-C7C library clones
[8] = Table 3, clones selected in the absence of calcium

T2 sequence (P33151 with tags, fused parts or gaps limits assumed, species assumed): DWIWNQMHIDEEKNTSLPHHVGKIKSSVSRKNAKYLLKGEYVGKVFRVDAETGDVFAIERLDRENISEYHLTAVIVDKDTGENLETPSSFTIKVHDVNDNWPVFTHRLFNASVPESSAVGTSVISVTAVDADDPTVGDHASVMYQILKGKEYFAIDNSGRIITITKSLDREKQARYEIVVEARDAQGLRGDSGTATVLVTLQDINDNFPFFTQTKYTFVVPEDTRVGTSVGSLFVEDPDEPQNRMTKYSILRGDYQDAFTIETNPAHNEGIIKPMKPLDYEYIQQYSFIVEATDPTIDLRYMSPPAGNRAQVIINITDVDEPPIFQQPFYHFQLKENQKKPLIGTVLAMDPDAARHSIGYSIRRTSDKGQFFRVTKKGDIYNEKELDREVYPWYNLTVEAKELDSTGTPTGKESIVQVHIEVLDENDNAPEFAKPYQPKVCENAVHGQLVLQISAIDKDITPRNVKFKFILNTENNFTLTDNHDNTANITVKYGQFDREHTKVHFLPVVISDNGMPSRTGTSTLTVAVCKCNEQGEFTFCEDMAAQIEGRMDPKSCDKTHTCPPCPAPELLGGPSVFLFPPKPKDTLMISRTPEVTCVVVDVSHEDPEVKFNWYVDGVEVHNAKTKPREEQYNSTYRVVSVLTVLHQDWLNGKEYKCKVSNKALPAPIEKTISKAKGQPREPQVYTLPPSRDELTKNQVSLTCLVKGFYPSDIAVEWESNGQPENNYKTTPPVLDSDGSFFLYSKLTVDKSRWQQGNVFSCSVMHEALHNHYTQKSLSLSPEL

EWMIHYDSALTS [Nc 12-a6]
ELISA Phage Binding to N-Cadherin/Fc Chimeric Protein 1.2 mM calcium [1, 4]: +
ELISA Phage Binding to N-Cadherin/Fc Chimeric Protein 2 mM EDTA [1, 4]: +
ELISA Phage Binding to Cadherin/Fc Chimeric Proteins VE− [2, 4]: −
ELISA Phage Binding to Cadherin/Fc Chimeric Proteins E− [3, 4]: +

AWTWSLPTLPQS [Ec 12-a5]
ELISA Phage Binding to Cadherin/Fc Chimeric Proteins N− [1, 5]: +
ELISA Phage Binding to Cadherin/Fc Chimeric Proteins VE− [2, 5]: −
ELISA Phage Binding to Cadherin/Fc Chimeric Proteins E− [3, 5]: +

WELVQCLTC [Ec 1]
ELISA Phage Binding to Cadherin/Fc Chimeric Proteins N− [1, 6]: +
ELISA Phage Binding to Cadherin/Fc Chimeric Proteins VE− [2, 6]: −
ELISA Phage Binding to Cadherin/Fc Chimeric Proteins E− [3, 6]: +

SWLAVWPATGAS [Nc 12-a10]
ELISA Phage Binding to N-Cadherin/Fc Chimeric Protein 1.2 mM calcium [1, 4]: +
ELISA Phage Binding to N-Cadherin/Fc Chimeric Protein 2 mM EDTA [1, 4]: +
ELISA Phage Binding to Cadherin/Fc Chimeric Proteins VE− [2, 4]: −
ELISA Phage Binding to Cadherin/Fc Chimeric Proteins E− [3, 4]: +

EWFWSWPGYSNT [Ec 12-a13]
ELISA Phage Binding to Cadherin/Fc Chimeric Proteins N− [1, 5]: +
ELISA Phage Binding to Cadherin/Fc Chimeric Proteins VE− [2, 5]: −
ELISA Phage Binding to Cadherin/Fc Chimeric Proteins E− [3, 5]: +

WELRVSSPC [Nc a7]
ELISA Phage Binding to N-Cadherin/Fc Chimeric Protein 1.2 mM calcium [1, 7]: +
ELISA Phage Binding to N-Cadherin/Fc Chimeric Protein 2 mM EDTA [1, 7]: −
ELISA Phage Binding to Cadherin/Fc Chimeric Proteins VE− [2, 7]: −
ELISA Phage Binding to Cadherin/Fc Chimeric Proteins E− [3, 7]: −

AWQVHYSYVASS [Nc 12-a7]
ELISA Phage Binding to N-Cadherin/Fc Chimeric Protein 1.2 mM calcium [1, 4]: +
ELISA Phage Binding to N-Cadherin/Fc Chimeric Protein 2 mM EDTA [1, 4]: +
ELISA Phage Binding to Cadherin/Fc Chimeric Proteins VE− [2, 4]: −
ELISA Phage Binding to Cadherin/Fc Chimeric Proteins E− [3, 4]: +

WHTSWSDTY [Nc 19]
ELISA Phage Binding to N-Cadherin/Fc Chimeric Protein 1.2 mM calcium [1, 7]: +
ELISA Phage Binding to N-Cadherin/Fc Chimeric Protein 2 mM EDTA [1, 7]: −
ELISA Phage Binding to Cadherin/Fc Chimeric Proteins VE− [2, 7]: −
ELISA Phage Binding to Cadherin/Fc Chimeric Proteins E− [3, 7]: −

QWTITYPKPPAL [Ec 12-13]
ELISA Phage Binding to Cadherin/Fc Chimeric Proteins N− [1, 5]: +
ELISA Phage Binding to Cadherin/Fc Chimeric Proteins VE− [2, 5]: −
ELISA Phage Binding to Cadherin/Fc Chimeric Proteins E− [3, 5]: +

CSKYNSPLC [Ec a4]
ELISA Phage Binding to Cadherin/Fc Chimeric Proteins N− [1, 6]: +
ELISA Phage Binding to Cadherin/Fc Chimeric Proteins VE− [2, 6]: −
ELISA Phage Binding to Cadherin/Fc Chimeric Proteins E− [3, 6]: +

SWTWHFPESPPP [Ec 12-01]
ELISA Phage Binding to Cadherin/Fc Chimeric Proteins N− [1, 5]: +
ELISA Phage Binding to Cadherin/Fc Chimeric Proteins VE− [2, 5]: −**
ELISA Phage Binding to Cadherin/Fc Chimeric Proteins E− [3, 5]: +*

EWTYTFPTAHSI [Ec 12-a18]
ELISA Phage Binding to Cadherin/Fc Chimeric Proteins N− [1, 5]: +
ELISA Phage Binding to Cadherin/Fc Chimeric Proteins VE− [2, 5]: −
ELISA Phage Binding to Cadherin/Fc Chimeric Proteins E− [3, 5]: +

SWTLYTPSGQSK [Nc 12-04]
ELISA Phage Binding to N-Cadherin/Fc Chimeric Protein 1.2 mM calcium [1, 4]: +
ELISA Phage Binding to N-Cadherin/Fc Chimeric Protein 2 mM EDTA [1, 4]: −
ELISA Phage Binding to Cadherin/Fc Chimeric Proteins VE− [2, 4]: −
ELISA Phage Binding to Cadherin/Fc Chimeric Proteins E− [3, 4]: −

WTMCYPDTC [Ec 7]
ELISA Phage Binding to Cadherin/Fc Chimeric Proteins N− [1, 6]: +
ELISA Phage Binding to Cadherin/Fc Chimeric Proteins VE− [2, 6]: −**
ELISA Phage Binding to Cadherin/Fc Chimeric Proteins E− [3, 6]: +*

EWTWVFPTTHTS [Ec 12-07]
ELISA Phage Binding to Cadherin/Fc Chimeric Proteins N− [1, 5]: +
ELISA Phage Binding to Cadherin/Fc Chimeric Proteins VE− [2, 5]: −
ELISA Phage Binding to Cadherin/Fc Chimeric Proteins E− [3, 5]: +

CSRPQSGLC [Ec a23]
ELISA Phage Binding to Cadherin/Fc Chimeric Proteins N− [1, 6]: +
ELISA Phage Binding to Cadherin/Fc Chimeric Proteins VE− [2, 6]: −
ELISA Phage Binding to Cadherin/Fc Chimeric Proteins E− [3, 6]: +

WLQPYFPSY [Nc 1]
phage binding to N-cadherin/Fc chimeric protein by ELISA [1]: positive ELISA signal
ELISA Phage Binding to N-Cadherin/Fc Chimeric Protein 1.2 mM calcium [1, 7]: +*
ELISA Phage Binding to N-Cadherin/Fc Chimeric Protein 2 mM EDTA [1, 7]: −**
ELISA Phage Binding to Cadherin/Fc Chimeric Proteins VE− [2, 7]: −
ELISA Phage Binding to Cadherin/Fc Chimeric Proteins E− [3, 7]: −

WYVCVGAHC [NoCa1]
phage binding to N-cadherin/Fc chimeric protein by ELISA [1]: good ELISA signal; also recorded: strong ELISA signal
ELISA Phage Binding to N-Cadherin/Fc Chimeric Protein 1.2 mM calcium [1, 8]: +*
ELISA Phage Binding to N-Cadherin/Fc Chimeric Protein 2 mM EDTA [1, 8]: +
ELISA Phage Binding to Cadherin/Fc Chimeric Proteins VE− [2, 8]: −
ELISA Phage Binding to Cadherin/Fc Chimeric Proteins E− [3, 8]: −**

EWQYHWPTLQSR [Ec 12-22]
ELISA Phage Binding to Cadherin/Fc Chimeric Proteins N− [1, 5]: +
ELISA Phage Binding to Cadherin/Fc Chimeric Proteins VE− [2, 5]: −
ELISA Phage Binding to Cadherin/Fc Chimeric Proteins E− [3, 5]: +

WTVCPIGNC [Nc 8]
ELISA Phage Binding to N-Cadherin/Fc Chimeric Protein 1.2 mM calcium [1, 7]: +
ELISA Phage Binding to N-Cadherin/Fc Chimeric Protein 2 mM EDTA [1, 7]: −
ELISA Phage Binding to Cadherin/Fc Chimeric Proteins VE− [2, 7]: −
ELISA Phage Binding to Cadherin/Fc Chimeric Proteins E− [3, 7]: −
